Data taken from patent US20240050577A1, “CDK INHIBITORS AND PHARMACEUTICAL USES THEREOF” (RISEN (SUZHOU) PHARMA TECH CO., LTD., priority 2022, published 2024).
pIC50: −log10 of the molar value.

Key:
Type in all cases: cell-based
[1] = molecular target: T1, CDK1 protein (Homo sapiens, UniProt P06493); test: CDK1 protein degradation in OVCAR3 cells (Western blot); settings: 24 h; for DC50: read-out: DC50 CDK1 (half-maximum degradation concentration); for percent CDK1 protein degradation at 0.05 µM: OVCAR-3, 50 nM test compound, read-out: level of CDK1 protein degradation
T1 construct: host or cells: OVCAR3
Procedure: (§1) OVCAR3 (Cobioer, CBP60294) cell line of exponential growth phase was inoculated on a 6-well cell culture plate (Corning, 3516) according to 3E5/well scheme; and the plate was incubated overnight in a 5%-carbon dioxide incubator at 37° C. The next day, the test compound was dissolved in DMSO (Sigma, RNBF5902) to prepare a 10-mM concentration stock solution. The stock solution was diluted with complete medium, giving working solutions of different concentrations. Working solution was added into the corresponding wells of the orifice plate. The plate was placed in a 5% carbon dioxide incubator, set at 37° C., and incubated for 24 h. The plate was removed from the incubator, and the cells were washed twice with precooled PBS (Gibco, 14190250), followed by addition of 40 μL RIPA lysis buffer (containing protease inhibitor (Invitrogen™, AM2696)) to each well. Adherent cells were scraped off with a cell scraper, and the cell lysate was transferred to a 1.5 mL centrifuge tube, and the tube was placed on ice for 30 minutes. After completion of cell lysis, the tube was centrifugated for 10 min at 4° C., 14000 rpm. The supernatant was transferred into a new 1.5-mL centrifuge tube, and the new tube was placed on ice, followed by measurement of the protein concentration with BCA protein detection kit (Thermo Fisher, 23225). A mixture of cell lysate (40 μL) and loading buffer (10 μL, 5×SDS (Beyotime, P0015L)) was placed into a water bath at 95° C. for 10 min to denature the protein. The denatured protein sample, 30 μL/well, was added into a corresponding well of 4-20% Bis-Tris gel (Kingsley, M00657). The initial voltage was adjusted to 80-V and run for 30 min, followed by voltage increased to 120 V, and run for another 40 min, until the strip had run to the appropriate position. After electrophoresis, iBlot2 (Life Technologies, IB21001) was used to transfer the film under the condition of 20 V and 7 min. At the end of film transfer, 5% skimmed milk powder was sealed at room temperature for 2 h, and then TBST (Thermo Scientific, 28360) buffer solution was used to rinse for three times, 10 minutes each time. Skimmed milk powder (5%) was diluted with the first antibody in the appropriate proportion, and the working solution of the first antibody was prepared and incubated overnight at 4° C. After the incubation of the first antibody, the membrane was washed three times at room temperature with TBST buffer solution, 10 minutes each time; and the second antibody was incubated with 5% skimmed milk powder at room temperature for 1 h. After washing the film for three times with TBST, ECL color developing solution (Thermofisher 34095) was added, and an image was taken on a Biorad Chemi Doc gel imager. The band gray value was analyzed (Image Lab).
(§2) Symbols of “−”, “+”, “++”, and “+++” indicate that the degradation level of CDK protein induced by test compound was 10% or less, 11 to 30%, 31 to 60%, and greater than 60%, respectively.
(§3) Half-maximum degradation concentrations (DC50s) of test compounds were calculated using GraphPad Prism and their values are shown in Table 4. Symbols of “++++”, “+++”, “++”, “+” and “−” represent DC50s equal or less than 10 nM, 11-50 nM, 51-100 nM, 101-200 nM, and >200 nM, respectively.

[2] = molecular target: T2, CDK2 protein (Homo sapiens, UniProt P24941); test: CDK2 protein degradation in OVCAR3 cells (Western blot); settings: 24 h; for level of CDK2 protein degradation: 50 nM test compound; for DC50: read-out: DC50 CDK2 (half-maximum degradation concentration)
T2 construct: host or cells: OVCAR3
Procedure: as §1, §2, §3

[3] = molecular target: T3, CDK6 protein (Homo sapiens, UniProt Q00534); test: CDK6 protein degradation in OVCAR3 cells (Western blot); settings: 24 h; for DC50: read-out: DC50 CDK6 (half-maximum degradation concentration); for percent CDK6 protein degradation at 0.05 µM: OVCAR-3, 50 nM test compound, read-out: level of CDK6 protein degradation
T3 construct: host or cells: OVCAR3
Procedure: as §1, §2, §3

[4] = molecular target: T4, CDK4 protein (Homo sapiens, UniProt P11802); test: CDK4 protein degradation in OVCAR3 cells (Western blot); settings: 24 h; for DC50: read-out: DC50 CDK4 (half-maximum degradation concentration); for percent CDK4 protein degradation at 0.05 µM: OVCAR-3, 50 nM test compound, read-out: level of CDK4 protein degradation
T4 construct: host or cells: OVCAR3
Procedure: as §1, §2, §3

[5] = system: OVCAR3 cells; test: Cell proliferation study (Cell Titer Glo, 72 h); settings: Homo sapiens, OVCAR-3, luminescence, read-out: IC50, inhibitory effect on cellular proliferation

T4 sequence (P11802 whole entry): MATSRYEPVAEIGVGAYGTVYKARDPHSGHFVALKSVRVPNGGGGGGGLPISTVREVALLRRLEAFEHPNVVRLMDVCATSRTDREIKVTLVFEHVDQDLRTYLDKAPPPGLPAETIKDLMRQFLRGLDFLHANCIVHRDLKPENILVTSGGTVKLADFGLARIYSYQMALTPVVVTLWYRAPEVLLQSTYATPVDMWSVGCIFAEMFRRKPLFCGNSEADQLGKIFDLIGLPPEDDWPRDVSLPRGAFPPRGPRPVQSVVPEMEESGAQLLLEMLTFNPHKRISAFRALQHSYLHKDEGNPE
T3 sequence (Q00534 whole entry): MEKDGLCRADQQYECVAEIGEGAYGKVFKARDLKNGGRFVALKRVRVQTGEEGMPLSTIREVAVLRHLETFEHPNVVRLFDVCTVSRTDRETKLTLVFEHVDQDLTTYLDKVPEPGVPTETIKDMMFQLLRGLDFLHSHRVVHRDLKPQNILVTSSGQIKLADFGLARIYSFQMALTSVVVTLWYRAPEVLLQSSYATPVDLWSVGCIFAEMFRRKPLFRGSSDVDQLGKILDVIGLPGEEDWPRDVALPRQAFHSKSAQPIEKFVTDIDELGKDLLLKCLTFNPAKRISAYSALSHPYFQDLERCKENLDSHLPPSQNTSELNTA
T1 sequence (P06493 whole entry): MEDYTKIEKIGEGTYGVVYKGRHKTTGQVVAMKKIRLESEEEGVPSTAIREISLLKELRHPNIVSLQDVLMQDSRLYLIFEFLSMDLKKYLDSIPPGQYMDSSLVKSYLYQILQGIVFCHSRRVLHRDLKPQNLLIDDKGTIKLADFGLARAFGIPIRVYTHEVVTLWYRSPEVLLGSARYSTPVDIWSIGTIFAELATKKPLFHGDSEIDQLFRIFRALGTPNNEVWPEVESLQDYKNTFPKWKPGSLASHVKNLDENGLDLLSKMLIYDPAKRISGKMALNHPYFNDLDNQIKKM

| DC50 [1] | percent CDK1 protein degradation at 0.05 µM [1] | level of CDK2 protein degradation [2] | DC50 [2] | DC50 [3] | percent CDK6 protein degradation at 0.05 µM [3] | DC50 [4] | percent CDK4 protein degradation at 0.05 µM [4] | pIC50 [5] | Structure (SMILES) |
| --- | --- | --- | --- | --- | --- | --- | --- | --- | --- |
| < 10 nM | > 60% | +++ (greater than 60%) | < 10 nM | > 200 nM | > 60% | > 200 nM | ≤ 10% | > 7.00 | C[C@@]1(O)CCC[C@H]1n1c(=O)c(C(F)F)cc2cnc(NC3CCN(S(=O)(=O)C4CCN(CC5CCN(C6CN(c7cc8c(cc7F)C(=O)N(C7CCC(=O)NC7=O)C8=O)C6)CC5)CC4)CC3)nc21 (stereo partly drawn) [Compound 37] |
| > 200 nM | > 60% | +++ (greater than 60%) | > 200 nM | > 200 nM | > 60% | > 200 nM | ≤ 10% | > 7.00 | Cc1nc2c(F)cc(-c3nc(Nc4ccc(S(=O)(=O)C5CCN(C6CCN(C7CN(c8cc9c(cc8F)C(=O)N(C8CCC(=O)NC8=O)C9=O)C7)CC6)CC5)cc4)ncc3F)cc2n1C(C)C (stereo not drawn) [Compound 64] |
| < 10 nM | > 60% | +++ (greater than 60%) | < 10 nM | < 10 nM | > 60% | > 200 nM | ≤ 10% | > 7.00 | Cc1nc2c(F)cc(-c3nc(NC4CCN(S(=O)(=O)C5CCN(C6CN(C7CCN(c8cc9c(cc8F)C(=O)N(C8CCC(=O)NC8=O)C9=O)CC7)C6)CC5)CC4)ncc3F)cc2n1C(C)C (stereo not drawn) [Compound 79] |
| > 200 nM | ≤ 10% | ++ (31 to 60%) | > 200 nM | < 10 nM | > 60% | > 200 nM | ≤ 10% | > 7.00 | Cc1nc2c(F)cc(-c3nc(NC4CCN(S(=O)(=O)C5CCN(CC6CCN(C7CN(c8cc9c(cc8F)C(=O)N(C8CCC(=O)NC8=O)C9=O)C7)CC6)CC5)CC4)ncc3F)cc2n1C(C)C (stereo not drawn) [Compound 80] |
| 101 to 200 nM | 31 to 60% | ++ (31 to 60%) | 101 to 200 nM | 101 to 200 nM | > 60% | > 200 nM | ≤ 10% | > 7.00 | Cc1nc2c(F)cc(-c3nc(NC4CCN(S(=O)(=O)C5CCN(C6CCN(C7CN(c8cc9c(cc8F)C(=O)N(C8CCC(=O)NC8=O)C9=O)C7)CC6)CC5)CC4)ncc3F)cc2n1C(C)C (stereo not drawn) [Compound 83] |
| 11 to 50 nM | 31 to 60% | +++ (greater than 60%) | 101 to 200 nM | > 200 nM | > 60% | > 200 nM | ≤ 10% | > 7.00 | Cc1nc2c(F)cc(-c3nc(NC4CCN(S(=O)(=O)C5CCN(CC6CC7(C6)CN(c6cc8c(cc6F)C(=O)N(C6CCC(=O)NC6=O)C8=O)C7)CC5)CC4)ncc3F)cc2n1C(C)C (stereo not drawn) [Compound 88] |

| Structure (SMILES) | DC50 [1] | percent CDK1 protein degradation at 0.05 µM [1] | level of CDK2 protein degradation [2] | DC50 [2] | DC50 [3] | percent CDK6 protein degradation at 0.05 µM [3] | DC50 [4] | percent CDK4 protein degradation at 0.05 µM [4] | pIC50 [5] |
| --- | --- | --- | --- | --- | --- | --- | --- | --- | --- |
| C[C@@]1(O)CCC[C@H]1n1c(=O)ccc2cnc(NC3CCN(S(=O)(=O)C4CCN(C5CC6(CCN(c7cc8c(cc7F)C(=O)N(C7CCC(=O)NC7=O)C8=O)CC6)C5)CC4)CC3)nc21 (stereo partly drawn) [Compound 94] | < 10 nM | > 60% | +++ (greater than 60%) | < 10 nM | > 200 nM | > 60% | > 200 nM | 11 to 30% | 5.30 to 6.00 |
| C[C@@]1(O)CCC[C@H]1n1c(=O)ccc2cnc(NC3CCN(S(=O)(=O)C4CCN(CC5CCN(C6CN(c7cc8c(cc7F)C(=O)N(C7CCC(=O)NC7=O)C8=O)C6)CC5)CC4)CC3)nc21 (stereo partly drawn) [Compound 95] | 11 to 50 nM | > 60% | ++ (31 to 60%) | 51 to 100 nM | < 10 nM | > 60% | > 200 nM | 31 to 60% | 6.00 to 7.00 |
